In data set [1] the target is T1, H3R (Homo sapiens, UniProt Q9Y5N1).
T1 construct: Gifford Bioscience (contract laboratory that ran the assay)
The experiment in a line: H3R competitive radioligand binding assay using [^3H]AZ13582963. To be noted: competitive binding vs [^3H]AZ13582963; for Ki: read-out: H3R K i.

Data set [2] in a line: Log D by shake-flask method. Type of data set: physicochemical. The following applies: n-octanol/PBS. The protocol:
To evaluate the binding affinities of compounds 1–9, competitive radioligand binding assays were conducted using [^3H]-AZ13582963 [4-(1S,2S)-2-(4-cyclobutylpiperazine-1-carbonyl)-cyclopropyl)-N-methyl-[2-^3 H]-benzamide]. […]. […]. Further, ACD Percepta predictions indicated these compounds are likely to cross the blood-brain barrier (BBB), as indicated by a log BB > −1 and a multiparameter optimization (MPO) score >4.0. High selectivity toward H3R over other CNS targets is essential for effective H3R PET imaging. Therefore, off-target screenings of compounds 2, 3, and 4 were conducted against various CNS receptors, G protein-coupled receptors (GPCRs), transporters, and ion channels at 10 μM (Figure S1). […]. Sigma-1 receptors, crucial for ion channel function and associated with learning, memory, and pain, , have shown synergy with H3R antagonists, including PF-03654746 and ABT-239, potentially enhancing in vivo efficacy.
The lipophilicity was measured according to previously reported methods. , In brief, PBS and n-octanol were premixed prior to the experiment. A solution containing 0.2 MBq of [^18F]3 or [^18F]4, PBS (3 mL) and n-octanol (3 mL) were prepared in a vial and vortexed for 5 min. The PBS and n-octanol layers were then separated and transferred into a centrifuge tube, followed centrifugation at 12,000 rpm for 5 min. Then PBS (0.5 mL) and n-octanol (0.05 mL) were weight and measured the radioactivity on a γ counter (PerkinElmer Wizard). The Log D values of [ ^18F]3 and [^18F]4 were calculated using the following formula: LogD=Log[(radioactivityn‐octanol/weightn‐octanol)/(radioactivityPBS/weightPBS)]

Data set [3] has as its target T2, sigma-1 receptor (Homo sapiens, UniProt Q99720). The experiment in a line: Off-target screening at 10 μM, sigma-1. It is filed as binding.
Data set [4] addresses T2, sigma-1 receptor. Kind of data set: sigma 1 binding assay. To be noted: for Ki: read-out: sigma-1 K i; for selectivity of H3R over sigma-1: ratio of sigma-1 K i to H3R K i.
The target in data set [5] is 5-hydroxytryptamine receptor 2A (5-HT2A) (Homo sapiens, UniProt P28223). The experiment in a line: Off-target screening at 10 μM, 5-HT2A. It is filed as binding. To be noted: read-out: inhibition of 5-HT2A.
5-hydroxytryptamine receptor 2A (5-HT2A), sequence (P28223 whole entry, species assumed): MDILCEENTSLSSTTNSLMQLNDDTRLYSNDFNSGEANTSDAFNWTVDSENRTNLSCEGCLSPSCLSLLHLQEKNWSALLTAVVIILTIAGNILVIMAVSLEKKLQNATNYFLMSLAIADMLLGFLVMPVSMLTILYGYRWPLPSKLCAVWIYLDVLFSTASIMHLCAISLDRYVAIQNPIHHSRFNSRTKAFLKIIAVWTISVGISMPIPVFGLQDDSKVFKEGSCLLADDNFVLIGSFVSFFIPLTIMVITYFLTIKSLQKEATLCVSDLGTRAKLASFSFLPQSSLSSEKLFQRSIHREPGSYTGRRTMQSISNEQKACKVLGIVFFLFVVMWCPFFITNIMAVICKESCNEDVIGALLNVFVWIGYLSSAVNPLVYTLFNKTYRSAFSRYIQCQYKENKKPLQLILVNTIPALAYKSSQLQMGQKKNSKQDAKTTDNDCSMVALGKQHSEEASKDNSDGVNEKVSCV
Data set [6] relates to CNS receptors, GPCRs, transporters, and ion channels. The experiment in a line: Off-target screening panel, CNS target selectivity. Type of data set: binding. The following applies: H3R against most CNS targets.
Data set [7] deals with T3, 5-HT2C (Homo sapiens, UniProt P28335).
T3 sequence (P28335 33-458): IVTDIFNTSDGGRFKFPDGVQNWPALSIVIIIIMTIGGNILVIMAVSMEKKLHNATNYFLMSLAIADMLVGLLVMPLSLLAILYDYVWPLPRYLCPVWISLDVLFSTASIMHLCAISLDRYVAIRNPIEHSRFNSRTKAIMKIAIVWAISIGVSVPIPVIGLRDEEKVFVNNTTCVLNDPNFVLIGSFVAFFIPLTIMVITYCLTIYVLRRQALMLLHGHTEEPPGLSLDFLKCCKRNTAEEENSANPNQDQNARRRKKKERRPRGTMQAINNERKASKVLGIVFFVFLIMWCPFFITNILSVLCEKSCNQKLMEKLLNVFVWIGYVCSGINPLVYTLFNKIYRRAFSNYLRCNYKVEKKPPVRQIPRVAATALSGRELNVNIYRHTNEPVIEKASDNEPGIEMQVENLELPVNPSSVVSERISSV
Kind of data set: 5HT2C binding assay. To be noted: read-out: 5-HT2C K i.

The target in the next data set is sigma-2 (Homo sapiens, UniProt Q5BJF2). The experiment in a line: Off-target screening at 10 μM, sigma-2. Type of data set: binding.
sigma-2, sequence (Q5BJF2 whole entry): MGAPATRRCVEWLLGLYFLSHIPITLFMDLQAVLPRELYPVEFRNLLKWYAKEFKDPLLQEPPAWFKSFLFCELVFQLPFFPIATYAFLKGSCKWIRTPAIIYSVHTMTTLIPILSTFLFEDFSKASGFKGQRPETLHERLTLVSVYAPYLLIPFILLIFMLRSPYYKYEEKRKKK
Data set [8] addresses T3, 5-HT2C. The experiment in a line: Off-target screening at 10 μM, 5-HT2C. It is filed as binding. The following applies: read-out: inhibition of 5-HT2C.
The target in data set [9] is T4, H3R (Rattus norvegicus, UniProt Q9QYN8).
T4 construct: The brains of SD rat were sectioned into 15 μm slices; from tissue; host or cells: SD rat brain sections
T4 sequence (Q9QYN8 whole entry): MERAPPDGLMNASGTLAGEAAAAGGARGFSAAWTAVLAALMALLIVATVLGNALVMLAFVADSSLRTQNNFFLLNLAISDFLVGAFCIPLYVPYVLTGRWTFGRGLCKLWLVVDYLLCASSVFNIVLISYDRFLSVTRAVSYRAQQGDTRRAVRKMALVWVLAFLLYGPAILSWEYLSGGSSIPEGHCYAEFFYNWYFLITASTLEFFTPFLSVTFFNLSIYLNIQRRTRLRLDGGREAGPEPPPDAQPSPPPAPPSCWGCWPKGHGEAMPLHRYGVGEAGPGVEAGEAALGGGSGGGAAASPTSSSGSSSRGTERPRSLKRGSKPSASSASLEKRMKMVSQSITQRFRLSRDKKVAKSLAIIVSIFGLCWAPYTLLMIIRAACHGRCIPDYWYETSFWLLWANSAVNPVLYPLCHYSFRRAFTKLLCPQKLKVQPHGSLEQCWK
The experiment in a line: In vitro autoradiography on rat brain sections. It is filed as binding, SD rat. The protocol:
To validate the target specificity and selectivity, in vitro autoradiography experiments were conducted using [^18F]3 and [^18F]4 on rat brain sections. […] Furthermore, pretreatment with unlabeled compound 3 (10 μM) led to a signal reduction of over 90% in the brain. […] This discrepancy is likely attributable to additional off-target binding of [^18F]3, which is further supported by high uptake in the cerebellum – a region with low H3R expression. […] The high uptake in the cerebellum may be attributed to nonspecific binding to unidentified CNS targets. […] Nonetheless, the results support further in vivo PET evaluation to better understand their binding profiles and evaluate their potential for H3R imaging – particularly in regions with low sigma-1 abundance.
The ARG was measured according to previously reported methods. , The brains of SD rat were sectioned into 15 μm slices and stored in −80 °C. For each experiment, the brain slices allowed them to warm to room temperature and then incubated in Tris-HCl buffer (50 mM, containing 0.1% bovine serum albumin) for 10 min. The slices were incubated with [^18F]3 or [^18F]4 (0.037 MBq/mL) in the presence of either DMSO (baseline study), GSK189254 (10 μM, blocking study), and unlabeled 3 or 4 (10 μM, blocking study) at room temperature for 30 min. Following incubation, the brain slices were washed three times with cold Tris-HCl buffer (50 mM) for 5 min each, and then dipped in water 2 times for 5 s. The brain slices were dried under cold air and exposed to a Phosphor Screen (BAS IP MS2025, Cytiva) for 2 h. The radioactivity and imaging were captured using an Amersham Typhoon 5 (Cytiva) and the data were analyzed using ImageJ software.

In data set [10] the target is T5, H3R (Mus musculus, UniProt P58406).
T5 construct: dynamic PET imaging studies were conducted in CD1 mice; from tissue; host or cells: brain of living CD1 mice
T5 sequence (P58406 whole entry): as the sequence (Q9QYN8 whole entry) above, with T15A, A286T, A290G, R387H, I389V counted along it
The experiment in a line: Dynamic PET imaging in CD1 mice, baseline and H3R antagonist blocking. Type of data set: in vivo. As for the experimental part: To elucidate the in vivo brain uptake of [^18F]3 and [^18F]4, dynamic PET imaging studies were conducted in CD1 mice (an outbred strain of immunocompetent mice commonly used for pharmacokinetic and biodistribution studies) for 60 min. The results, which include summed PET images (0–60 min), whole-brain time-activity curves (TACs), and area under the curve (AUC) for both radioligands, are depicted in Figures and . At baseline, [^18F]3 rapidly crossed the BBB following intravenous injection, reaching peak whole-brain uptake with a standardized uptake value (SUV) value of 2.4 at 2.3 min. This was followed by a gradual washout and reached a SUV of 1.87 by 60 min. To evaluate the binding characteristics of [^18F]3, elective H3R antagonists with distinct structural scaffolds, GSK189254, enerisant, and cipralisant, were used as blocking agents. […] Quantification of specific tracer binding was performed using volume of distribution (V T) values, derived from compartmental modeling and an image-derived input function (IDIF). […] While these findings support the utility of [^18F]3 for in vivo studies, we acknowledge the inherent limitations of IDIF, including the lack of metabolite correction and potential inaccuracies in capturing early phase kinetics.
PET imaging was conducted following previously reported methods. CD1 mice (5–6 weeks) were anesthetized with 1.5% (v/v) isoflurane during the scan. A dose of 3.0 MBq of [^18F]3 or [^18F]4 was intravenously injected into the tail vein, and a dynamic scan was acquiring using a PET scanner (MOLECUBES, beta-cube) for 60 min. In the blocking studies, GSK189254 (3 mg/kg) in 0.1 mL of saline containing 5% ethanol and 5% Tween-80 was preinjected for 10 min prior to the injection of PET radioligands. The results were reconstructed and analyzed by PMOD 4.3 software.
Quantification of specific tracer binding was performed using volume of distribution (VT) values, derived from compartmental modeling and an image-derived input […]
significant reduction in H3R-rich brain regions such as the cortex and striatum under blocking conditions with GSK189254, enerisant, and cipralisant, confirming the specificity of [18F]3 binding (Table S1).
Table S1. Estimation of V T values by Logan analysis in mice with [ 18F]3 at baseline, GSK189254-blocking (3 mg/kg), enerisant-blocking (3 mg/kg), and cipralisant-blocking (3 mg/kg) conditions.
Group Baseline GSK189254 Enerisant Cipralisant blocking blocking blocking

This is an account of results in article PMC12362585, “Development and Preclinical Characterization of [^18F]H3-2406 and [^18F]H3-2407 for Positron Emission Tomography Imaging of the Histamine Subtype‑3 Receptor” (Journal of Medicinal Chemistry, 2025).

T1 sequence (Q9Y5N1 whole entry, species assumed): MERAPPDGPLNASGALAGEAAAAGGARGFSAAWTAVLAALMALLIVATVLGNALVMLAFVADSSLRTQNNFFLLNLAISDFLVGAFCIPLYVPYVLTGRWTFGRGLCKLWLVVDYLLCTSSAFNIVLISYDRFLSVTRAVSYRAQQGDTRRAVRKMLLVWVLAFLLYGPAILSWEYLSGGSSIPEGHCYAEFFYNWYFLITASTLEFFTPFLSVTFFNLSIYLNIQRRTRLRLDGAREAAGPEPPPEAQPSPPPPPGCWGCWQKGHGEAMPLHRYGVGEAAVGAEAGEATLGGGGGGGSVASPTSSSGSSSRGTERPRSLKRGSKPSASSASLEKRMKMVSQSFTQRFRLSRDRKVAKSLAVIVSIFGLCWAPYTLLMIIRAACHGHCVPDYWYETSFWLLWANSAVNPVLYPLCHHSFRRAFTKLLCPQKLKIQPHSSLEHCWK
T2 sequence (Q99720 whole entry, species assumed): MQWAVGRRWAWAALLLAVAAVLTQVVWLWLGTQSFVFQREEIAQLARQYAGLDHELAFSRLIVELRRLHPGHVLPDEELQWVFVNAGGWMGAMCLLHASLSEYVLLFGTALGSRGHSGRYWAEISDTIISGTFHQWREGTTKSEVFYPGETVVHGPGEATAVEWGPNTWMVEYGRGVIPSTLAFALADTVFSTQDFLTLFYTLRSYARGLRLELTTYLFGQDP

As for `[11CH3]NC(=O)c1ccc([C@H]2C[C@@H]2C(=O)N2CCN(C3CCC3)CC2)cc1` [AZD13153556, reference compound], the IC50 (usually the concentration that gives 50% inhibition) at H3R [1] was 23.5 nM.
Regarding `O=C([C@H]1C[C@@H]1c1ccc(F)cc1)N1CCN(C2CCC2)CC1` [Compound 2, (4-Cyclobutylpiperazin-1-yl)((1S,2S)-2-(4-fluorophenyl)cyclopropyl)methanone], in data set [2], the log distribution coefficient (logD) – broadly, the decadic logarithm of the distribution of all forms, ionised or not, between an organic phase and buffer at a given pH – was 2.76. In addition, the inhibition (as a rule, the relative decrease from the control value, in per cent) at 10 µM against sigma-1 receptor [3] was 98.1%. The Ki at sigma-1 receptor [4] was 1.61 nM.
On to `O=C([C@H]1C[C@@H]1c1ccc(F)cc1)N1CCN(C2CCCC2)CC1` [Compound 3, (4-Cyclopentylpiperazin-1-yl)((1S,2S)-2-(4-fluorophenyl)cyclopropyl)methanone], for which the logD in data set [2] worked out at 2.82. The inhibition at 10 µM came out at 93.2% at sigma-1 receptor [3] and 64.5% in data set [5]. In data set [6], the CNS target selectivity entry is “over 300 fold”. At sigma-1 receptor [4], the “selectivity of H3R over sigma-1” value was 69 fold. The Ki is 199 nM on sigma-1 receptor [4] and more than 1000 nM at 5-HT2C [7].
As for `O=C([C@H]1C[C@@H]1c1ccc(F)cc1)N1CCN(C2CCCCC2)CC1` [Compound 4, (4-Cyclohexylpiperazin-1-yl)((1S,2S)-2-(4-fluorophenyl)cyclopropyl)methanone], the logD in data set [2] was 3.35. Also, the inhibition at 10 µM came out at 94.4% against sigma-1 receptor [3], 93.6% at sigma-2, 59% in data set [5] and 80.3% at 5-HT2C [8]. The CNS target selectivity result in [6] was “over 300 fold”. For the same compound, the “selectivity of H3R over sigma-1” value on sigma-1 receptor [4] came out at 407 fold. The Ki on sigma-1 receptor [4] was 1280 nM; on 5-HT2C [7], more than 1000 nM.
Consider `O=C([C@H]1C[C@@H]1c1ccc(F)cc1)N1CCN(C2CCCCCC2)CC1` [Compound 5, (4-Cycloheptylpiperazin-1-yl)((1S,2S)-2-(4-fluorophenyl)cyclopropyl)methanone], for which, on H3R [1], the IC50 is more than 1000 nM and the Ki was more than 1000 nM.
In the case of `O=C([C@H]1C[C@@H]1c1ccc(F)cc1)N1CC2(C1)CN(C1CCC1)C2` [Compound 6, (6-Cyclobutyl-2,6-diazaspiro[3.3]heptan-2-yl)((1S,2S)-2-(4-fluorophenyl)cyclopropyl)methanone], at H3R [1], the IC50 is more than 1000 nM and the Ki was more than 1000 nM.
Consider `O=C([C@H]1C[C@@H]1c1ccc(F)cc1)N1C[C@@H]2C[C@H]1CN2C1CCC1` [Compound 7, ((1S,4S)-5-Cyclobutyl-2,5-diazabicyclo[2.2.1]heptan-2-yl)((1S,2S)-2-(4-fluorophenyl)cyclopropyl)methanone], for which, at H3R [1], the half-inhibitory concentration (IC50) was more than 1000 nM and the Ki is more than 1000 nM.
For the compound `O=C([C@H]1C[C@@H]1c1ccc(F)cc1)N1C[C@@H]2CN(C3CCC3)C[C@@H]2C1` [Compound 8, ((3aR,6aS)-5-Cyclobutylhexahydropyrrolo[3,4-c]pyrrol-2(1H)-yl)((1S,2S)-2-(4-fluorophenyl)cyclopropyl)methanone], at H3R [1], the concentration for half-maximal inhibition (IC50) is more than 1000 nM and the Ki was more than 1000 nM.
As for `O=C([C@H]1C[C@@H]1c1ccc([18F])cc1)N1CCN(C2CCCCC2)CC1` [[^18F]4], the logD in data set [2] was 3.35. The “reduction in radioactivity across brain regions, GSK189254 blocking” value at H3R [9] (GSK189254 10 μM) is on record as 38.7–68.2%. Moreover, the “signal reduction, self-blocking with unlabeled compound” value on H3R [9] (unlabeled 3 or 4 at 10 μM) is reported as 66.6–78.8%. For the same compound, at H3R [10] (GSK189254 3 mg/kg, 0–60 min), the “whole-brain signal reduction based on AUC, GSK189254 blocking” value is on record as “did not yield a significant reduction”. On H3R [10] (baseline, CD1 mice), the “time of peak whole-brain uptake” value turned out to be 4.3 min and the “whole-brain uptake at 60 min” value was determined as 1.77 SUV. This compound also yielded a peak whole-brain uptake on H3R [10] (baseline, intravenous injection, CD1 mice) of 1.83 SUV. The “reduction in whole-brain uptake from peak after 60 min dynamic scan” value at H3R [10] (baseline, washout) was 3.3%.
With `O=C([C@H]1C[C@@H]1c1ccc(-c2ccc([18F])nc2)cc1)N1CCN(C2CCC2)CC1` [[^18F]H3-2404, reference compound], the Ki at H3R [1] came out at 10.2 nM.
